Assays:
[1] = 808 nm laser, 3 min irradiation per cycle
Method: The nanoparticle solution filled with the BPBBT dot was fixed and irradiated by using an 808 nm laser. Meanwhile, the temperature of the solution was monitored in real time by using a thermal imaging camera. The laser was turned off after 3 min of irradiation, and the laser was turned on again when the temperature was recovered to the initial temperature. In this way, 5 cycles were repeated, and whether the highest temperature of each cycle was the same or not was observed so as to judge the stability of photothermal conversion.

[2] = BPBBT solution in 5% THF at the same concentration (50 μM); stated as known; cited from earlier work

maximum temperature [1]: about 48 °C
Substance: 4,8-bis[4-(N, N-bis(4-octyloxyphenyl)amino)phenyl]benzo[1,2-c:4,5-c′]bis([1,2,5]thiadiazole) [BPBBT]
photothermal conversion efficiency [2]: 22%
